{"source": "patent US6413999B1", "about": "“Treatment for acute physical insult to the central nervous system” (University of Saskatchewan Technologies Inc., priority 1999, dated 2002)", "type_in_all_cases": "in vivo, rat", "key": {"[1]": {"tested_on": "Wistar rats with clip compression injury at the T6 spinal cord level", "experiment": "Spinal cord glutathione reductase activity after clip compression injury at T6", "details": "24 hours following spinal cord injury; T5 (P<0.05), T6, T7, T9 (P<0.01) versus saline vehicle; FIG. 2", "experimental": "(§1) Adult male Wistar rats (˜320 g) were obtained from Charles River Canada and housed in a temperature-regulated animal facility, exposed to a 12 hour light/dark cycle and had free access to food and water. Animals were treated in accordance with the guidelines of the Canadian Council on Animal Care. Prior in surgery, the rats received the analgesic Buprenorphine-hydrochloride subcutaneously at a dose of 0.05 mg/kg and then every 12 hours for the first 72 hours following surgery. Anesthesia was performed with Halothane (5% induction and 1% maintenance). Laminectomy was performed aseptically at T5-T6 to expose the spinal cord. A 5-second clip compression injury was induced at the T6 spinal cord level using a modified Kerr-Lougheed aneurysm clip with a calibrated force of 50 g as described in Rivlin et al. (Surg. Neurol., 9, 39-43, 1979) and Khan et al. (Can. J. Neurol. Sci., 10, 161-165, 1983). […]\n(§2) A total of 54 animals were used to determine the onset of oxidative stress following insult. […] Spinal cord segments were frozen in liquid nitrogen and stored at −80° C. until analyzed.\nGlutathione reductase was calculated by measuring the disappearance of NADPH (SIGMA (trade-mark)) in the presence of oxidized-glutathione based upon the procedure described by Eklow et al. (Eur. J. Biochem. 138, 459-463 (1984)), as applied in Juurlink et al (Glia 22, 371-378, 1998))."}, "[2]": {"tested_on": "Wistar rats with clip compression injury at the T6 spinal cord level", "experiment": "Functional recovery after spinal cord compression (angleboard, modified Tarlov score, BBB scale)", "experimental": "as §1, with “cord.” for “cord. A 5-second clip compression injury was induced at the T6 spinal cord level using a modified Kerr-Lougheed aneurysm clip with a calibrated force of 50 g as described in Rivlin et al. (Surg. Neurol., 9, 39-43, 1979) and Khan et al. (Can. J. Neurol. Sci., 10, 161-165, 1983).”\nA semiquantitative assessment of hindlimb function during open field walking gas performed using the modified Tarlov score (Tariq et al.). Spontaneous activity of hind limb was scored as follows: 0=total paraplegia of hindlimbs; 1=no spontaneous movements but responds to hindlimb pinch; 2=spontaneous movement; 3=able to support weight but unable to walk; 4=walks with gross deficit; 5=walks with mild deficit on broad flat surface, 6=able to walk on broad flat surface and support weight on a 1.8 cm wide ledge; 7=walks on ledge. […]"}, "[3]": {"tested_on": "rats with acute physical insult to the CNS", "experiment": "Inflammation (observation, ICAM-1 and iNOS levels) following insult", "details": "OTC following insult, compared to saline-treated controls", "experimental": "Inflammation was assessed by observation and by measurement of ICAM-1 and iNOS levels. A significant increase in inflammation was observed following insult."}, "[4]": {"tested_on": "Wistar rats with clip compression injury at the T6 spinal cord level", "experiment": "Spinal cord histomorphometry (luxol fast blue white matter) 6 weeks after injury", "experimental": "as §1, with “cord.” for “cord. A 5-second clip compression injury was induced at the T6 spinal cord level using a modified Kerr-Lougheed aneurysm clip with a calibrated force of 50 g as described in Rivlin et al. (Surg. Neurol., 9, 39-43, 1979) and Khan et al. (Can. J. Neurol. Sci., 10, 161-165, 1983).”\nFollowing 6 weeks of behavioral evaluation, the spinal cords were fixed by transcardial perfusion with 0.03M phosphate-buffered saline (pH 7.4) containing 1% sodium nitrite in rats anesthetized with Halothane, followed by perfusion (100 ml/100 g) with either 4% formaldehyde (freshly prepared from paraformaldehyde) or FAM solution (formaldehyde, acetic acid and methanol in 1:1:8 ratio) and left in the same fixative for 5 days. […] Area of white matter was quantified using Northern Eclipse™ software and expressed in pixels."}, "[5]": {"tested_on": "Wistar rats with clip compression injury at the T6 spinal cord level", "experiment": "Spinal cord GSH content after 50 g clip compression injury at T6", "details": "26 hours following injury and 2 hours following OTC administration; versus saline P=0.0033; FIG. 4", "experimental": "as §1, §2\nGSH was measured using 5,5′-dithio-bis(2-nitrobenzoic) acid-derivatization (“DTNB”) followed by HPLC and UV detection. […] The homogenates were centrifuged at 10,000 g for 15 min and supernatants collected, derivatized and analyzed using the Shimadzu reversed-phase HPLC with ultraviolet detection. […]"}, "[6]": {"tested_on": "Wistar rats with clip compression injury at the T6 spinal cord level", "experiment": "Spinal cord protein carbonyl content after clip compression injury at T6", "details": "24 hours post-trauma; T5 (P<0.05), T6, T7 (P<0.01), T9 (P<0.05) versus saline; FIG. 3", "experimental": "as §1, with “cord.” for “cord. A 5-second clip compression injury was induced at the T6 spinal cord level using a modified Kerr-Lougheed aneurysm clip with a calibrated force of 50 g as described in Rivlin et al. (Surg. Neurol., 9, 39-43, 1979) and Khan et al. (Can. J. Neurol. Sci., 10, 161-165, 1983).”\nas §2\nProtein carbonyl content was determined spectrophotometrically using 2,4-dinitrophenylhydrazine (DNPH) to trap carbonyls with the adduct formed measured at 360 nm. Results are expressed as pmoles of DNPH incorporated per mg of protein calculated using a molar absorption coefficient of 22,000 M^−1 cm^−1 for aliphatic hydrazones."}, "[7]": {"tested_on": "rats with unilateral carotid artery ligation and 12% oxygen atmosphere", "experiment": "Vascular event model (unilateral carotid artery ligation plus 12% oxygen): brain damage and GSH", "experimental": "Nine to eleven week old rats were obtained and housed as described in Example 1A. Animals were treated in accordance with the guidelines of the Canadian Council on Animal Care.\nThe rats were randomly divided into two groups. Both groups of rats underwent unilateral carotid artery ligation and were then subjected to a 12% oxygen atmosphere for 35 minutes. Fifteen minutes after insult, rats of one group received an initial dose of OTC (12 mmoles/kg body weight) and rats of the other group receive the phosphate-buffered saline vehicle (“saline”). Rats received subsequent doses of OTC (4 mmoles/kg body weight) or saline, as appropriate, every 12 hours for 3 days.\nRats were sacrificed 1 week following insult and brain damage was assessed.\nBrain damage following a vascular event was assessed using the method of Thornhill, et al. (Brain Res. 825(1-2):36-45 (1999)."}, "[8]": {"experiment": "Body weight after spinal cord clip compression injury", "details": "T6 clip compression; OTC 12 mmoles/kg i.p. 30 min after injury, then 4 mmoles/kg every 12 h for five days; pre-surgery 328.3±4.2 g; saline 403.9±9.5 g; P=0.0337", "experimental": "Adult male Wistar rats (˜320 g) were obtained from Charles River Canada and housed in a temperature-regulated animal facility, exposed to a 12 hour light/dark cycle and had free access to food and water. Animals were treated in accordance with the guidelines of the Canadian Council on Animal Care. Prior in surgery, the rats received the analgesic Buprenorphine-hydrochloride subcutaneously at a dose of 0.05 mg/kg and then every 12 hours for the first 72 hours following surgery. Anesthesia was performed with Halothane (5% induction and 1% maintenance). Laminectomy was performed aseptically at T5-T6 to expose the spinal cord. A 5-second clip compression injury was induced at the T6 spinal cord level using a modified Kerr-Lougheed aneurysm clip with a calibrated force of 50 g as described in Rivlin et al. (Surg. Neurol., 9, 39-43, 1979) and Khan et al. (Can. J. Neurol. Sci., 10, 161-165, 1983). For delivery of drug or saline vehicle a sterile catheter was placed subcutaneously running from the dorsum to enter the peritoneal cavity ventrally; this was done before the laminectomy was performed. Thirty minutes following spinal cord compression an initial dose of OTC or phosphate-buffered saline vehicle (“saline”) was delivered intraperitoneally and then subsequent doses were administered every 12 hours for the next five days. […]"}}, "data": [{"compound": "O=C1N[C@H](C(=O)O)CS1", "note": "[OTC, L-2-oxothiazolidine-4-carboxylate]", "values": [{"measurement": "glutathione reductase activity in spinal cord", "setting": "[1]", "result": "significantly inhibited the decrease in glutathione reductase activity"}, {"measurement": "modified Tarlov score", "setting": "[2]; 6 weeks after trauma, scale 0-7, after trauma 1, saline 2.4, FIG. 8a", "result": 4.1}, {"measurement": "angleboard capacity angle", "setting": "[2]; 6 weeks recovery, before insult 59°, after insult 28°, saline 32°, FIG. 7", "result": 42, "unit": "°"}, {"measurement": "levels of inflammation (ICAM-1 and iNOS)", "setting": "[3]", "result": "lower levels of inflammation"}, {"measurement": "grey matter sparing at T6", "setting": "[4]", "result": "did not result in grey matter sparing"}, {"measurement": "GSH levels in the affected CNS region", "setting": "[5]", "result": "increased GSH levels"}, {"measurement": "protein carbonyl content in spinal cord", "setting": "[6]", "result": "significantly decreased protein carbonyl formation"}, {"measurement": "brain damage score", "setting": "[7]; 1 week following insult, OTC 12 mmoles/kg 15 min after insult, then 4 mmoles/kg every 12 h for 3 days, saline score 2.67, FIG. 9", "result": 1.86}, {"measurement": "concentrations of GSH in the affected CNS regions", "setting": "[7]; insult by a vascular event, compared to saline-treated animals", "result": "higher concentrations of GSH"}, {"measurement": "weight of animals 6 weeks after surgery", "setting": "[8]", "result": "434.3 ± 9.3", "unit": "g"}]}]}
